# Data taken from ChEMBL document CHEMBL4004849, “Tetrazolylmethyl quinolines: Design, docking studies, synthesis, anticancer and antifungal analyses” (2017).
# Calls of active or inactive are those of the source. The rule behind the calls is not given here.
# Columns and labels:
# Assay type in all cases: functional
# NCI-H522 = test: Growth inhibition of human NCI-H522 cells at 10^-5 M incubated for 48 hrs by sulforhodamine B assay relative to control
# HCC 2998 = test: Growth inhibition of human HCC2998 cells at 10^-5 M incubated for 48 hrs by sulforhodamine B assay relative to control
# Candida albicans [1] = test: Antifungal activity against Candida albicans at 100 ug/ml by disc diffusion method; details: read-out: IZ
# IGROV-1 = test: Growth inhibition of human IGROV1 cells at 10^-5 M incubated for 48 hrs by sulforhodamine B assay relative to control
# T47D = test: Growth inhibition of human T47D cells at 10^-5 M incubated for 48 hrs by sulforhodamine B assay relative to control
# OVCAR-3 = test: Growth inhibition of human OVCAR3 cells at 10^-5 M incubated for 48 hrs by sulforhodamine B assay relative to control
# OVCAR-8 = test: Growth inhibition of human OVCAR8 cells at 10^-5 M incubated for 48 hrs by sulforhodamine B assay relative to control
# HCT-116 = test: Growth inhibition of human HCT116 cells at 10^-5 M incubated for 48 hrs by sulforhodamine B assay relative to control
# MCF7 = test: Growth inhibition of human MCF7 cells at 10^-5 M incubated for 48 hrs by sulforhodamine B assay relative to control
# Malme-3M = test: Growth inhibition of human MALME-3M cells at 10^-5 M incubated for 48 hrs by sulforhodamine B assay relative to control
# Candida albicans [2] = test: Antifungal activity against Candida albicans after 24 hrs by serial dilution method
# MDA-MB-468 = test: Growth inhibition of human MDA-MB-468 cells at 10^-5 M incubated for 48 hrs by sulforhodamine B assay relative to control
# UACC-257 = test: Growth inhibition of human UACC257 cells at 10^-5 M incubated for 48 hrs by sulforhodamine B assay relative to control
# UO-31 = test: Growth inhibition of human UO31 cells at 10^-5 M incubated for 48 hrs by sulforhodamine B assay relative to control
# SW-620 = test: Growth inhibition of human SW620 cells at 10^-5 M incubated for 48 hrs by sulforhodamine B assay relative to control
# SK-MEL-5 = test: Growth inhibition of human SK-MEL-5 cells at 10^-5 M incubated for 48 hrs by sulforhodamine B assay relative to control
# RXF 393 = test: Growth inhibition of human RXF393 cells at 10^-5 M incubated for 48 hrs by sulforhodamine B assay relative to control
# SR = test: Growth inhibition of human SR cells at 10^-5 M incubated for 48 hrs by sulforhodamine B assay relative to control
# COLO 205 = test: Growth inhibition of human COLO205 cells at 10^-5 M incubated for 48 hrs by sulforhodamine B assay relative to control
# Aspergillus fumigatus = test: Antifungal activity against Aspergillus fumigatus after 24 hrs by serial dilution method
# A549 = test: Growth inhibition of human A549/ATCC cells at 10^-5 M incubated for 48 hrs by sulforhodamine B assay relative to control
# UACC-62 = test: Growth inhibition of human UACC62 cells at 10^-5 M incubated for 48 hrs by sulforhodamine B assay relative to control
# HT-29 = test: Growth inhibition of human HT-29 cells at 10^-5 M incubated for 48 hrs by sulforhodamine B assay relative to control
# OVCAR-5 = test: Growth inhibition of human OVCAR5 cells at 10^-5 M incubated for 48 hrs by sulforhodamine B assay relative to control
# SK-MEL-2 = test: Growth inhibition of human SK-MEL-2 cells at 10^-5 M incubated for 48 hrs by sulforhodamine B assay relative to control
# HCT-15 = test: Growth inhibition of human HCT15 cells at 10^-5 M incubated for 48 hrs by sulforhodamine B assay relative to control
# HL-60(TB) = test: Growth inhibition of human HL-60(TB) cells at 10^-5 M incubated for 48 hrs by sulforhodamine B assay relative to control
# MDA-MB-435 = test: Growth inhibition of human MDA-MB-435 cells at 10^-5 M incubated for 48 hrs by sulforhodamine B assay relative to control
# M14 = test: Growth inhibition of human M14 cells at 10^-5 M incubated for 48 hrs by sulforhodamine B assay relative to control
# SK-OV-3 = test: Growth inhibition of human SKOV3 cells at 10^-5 M incubated for 48 hrs by sulforhodamine B assay relative to control
# SF-268 = test: Growth inhibition of human SF268 cells at 10^-5 M incubated for 48 hrs by sulforhodamine B assay relative to control
# DU-145 = test: Growth inhibition of human DU145 cells at 10^-5 M incubated for 48 hrs by sulforhodamine B assay relative to control
# MOLT-4 = test: Growth inhibition of human MOLT4 cells at 10^-5 M incubated for 48 hrs by sulforhodamine B assay relative to control
# NCI-H226 = test: Growth inhibition of human NCI-H226 cells at 10^-5 M incubated for 48 hrs by sulforhodamine B assay relative to control
# K562 = test: Growth inhibition of human K562 cells at 10^-5 M incubated for 48 hrs by sulforhodamine B assay relative to control
# SK-MEL-28 = test: Growth inhibition of human SK-MEL-28 cells at 10^-5 M incubated for 48 hrs by sulforhodamine B assay relative to control
# SNB-19 = test: Growth inhibition of human SNB19 cells at 10^-5 M incubated for 48 hrs by sulforhodamine B assay relative to control
# U-251 = test: Growth inhibition of human U251 cells at 10^-5 M incubated for 48 hrs by sulforhodamine B assay relative to control
# NCI-H23 = test: Growth inhibition of human NCI-H23 cells at 10^-5 M incubated for 48 hrs by sulforhodamine B assay relative to control
# CAKI-1 = test: Growth inhibition of human Caki1 cells at 10^-5 M incubated for 48 hrs by sulforhodamine B assay relative to control
# NCI/ADR-RES = test: Growth inhibition of human NCI-ADR-RES cells at 10^-5 M incubated for 48 hrs by sulforhodamine B assay relative to control
# NCI-H460 = test: Growth inhibition of human NCI-H460 cells at 10^-5 M incubated for 48 hrs by sulforhodamine B assay relative to control
# BT-549 = test: Growth inhibition of human BT549 cells at 10^-5 M incubated for 48 hrs by sulforhodamine B assay relative to control
# SN12C = test: Growth inhibition of human SN12C cells at 10^-5 M incubated for 48 hrs by sulforhodamine B assay relative to control
structure (smiles),measurement,setting,value
COc1ccc2nc(Cl)c(Cn3nnnc3Cc3ccccc3)cc2c1,growth inhibition (GI),NCI-H522,Active
same,growth inhibition (GI),HCC 2998,Active
same,zone of inhibition at 100 µg/mL,Candida albicans [1],15 mm
same,growth inhibition (GI),IGROV-1,Active
same,growth inhibition (GI),T47D,Active
same,growth inhibition (GI),OVCAR-3,Active
same,growth inhibition (GI),OVCAR-8,Active
same,growth inhibition (GI),HCT-116,Active
same,growth inhibition (GI),MCF7,Active
same,growth inhibition (GI),Malme-3M,Active
same,MIC,Candida albicans [2],25 µg/mL
same,growth inhibition (GI),MDA-MB-468,Active
same,growth inhibition (GI),UACC-257,Active
same,growth inhibition (GI),UO-31,Active
same,growth inhibition (GI),SW-620,Active
same,growth inhibition (GI),SK-MEL-5,Active
same,growth inhibition (GI),RXF 393,Active
same,growth inhibition (GI),SR,Active
same,growth inhibition (GI),COLO 205,Active
same,MIC,Aspergillus fumigatus,25 µg/mL
same,growth inhibition (GI),A549,Active
same,growth inhibition (GI),UACC-62,Active
same,growth inhibition (GI),HT-29,Active
same,growth inhibition (GI),OVCAR-5,Active
same,growth inhibition (GI),SK-MEL-2,Active
same,growth inhibition (GI),HCT-15,Active
same,growth inhibition (GI),HL-60(TB),Active
same,growth inhibition (GI),MDA-MB-435,Active
same,growth inhibition (GI),M14,Active
same,growth inhibition (GI),SK-OV-3,Active
same,growth inhibition (GI),SF-268,Active
same,growth inhibition (GI),DU-145,Active
same,growth inhibition (GI),MOLT-4,Active
same,growth inhibition (GI),NCI-H226,Active
same,growth inhibition (GI),K562,Active
same,growth inhibition (GI),SK-MEL-28,Active
same,growth inhibition (GI),SNB-19,Active
same,growth inhibition (GI),U-251,Active
same,growth inhibition (GI),NCI-H23,Active
same,growth inhibition (GI),CAKI-1,Active
same,growth inhibition (GI),NCI/ADR-RES,Active
same,growth inhibition (GI),NCI-H460,Active
same,growth inhibition (GI),BT-549,Active
same,growth inhibition (GI),SN12C,Active
Clc1nc2ccc(Br)cc2cc1Cn1nnc(Cc2ccccc2)n1,growth inhibition (GI),NCI-H522,Active
same,growth inhibition (GI),HCC 2998,Active
same,zone of inhibition at 100 µg/mL,Candida albicans [1],10 mm
same,growth inhibition (GI),IGROV-1,Active
same,growth inhibition (GI),T47D,Active
same,growth inhibition (GI),OVCAR-3,Active
same,growth inhibition (GI),OVCAR-8,Active
same,growth inhibition (GI),HCT-116,Active
same,growth inhibition (GI),MCF7,Active
same,growth inhibition (GI),Malme-3M,Active
same,MIC,Candida albicans [2],10 µg/mL
same,growth inhibition (GI),MDA-MB-468,Active
same,growth inhibition (GI),UACC-257,Active
same,growth inhibition (GI),UO-31,Active
same,growth inhibition (GI),SW-620,Active
same,growth inhibition (GI),SK-MEL-5,Active
same,growth inhibition (GI),RXF 393,Active
same,growth inhibition (GI),SR,Active
same,growth inhibition (GI),COLO 205,Active
same,MIC,Aspergillus fumigatus,10 µg/mL
same,growth inhibition (GI),A549,Active
same,growth inhibition (GI),UACC-62,Active
same,growth inhibition (GI),HT-29,Active
same,growth inhibition (GI),OVCAR-5,Active
same,growth inhibition (GI),SK-MEL-2,Active
same,growth inhibition (GI),HCT-15,Active
same,growth inhibition (GI),HL-60(TB),Active
same,growth inhibition (GI),MDA-MB-435,Active
same,growth inhibition (GI),M14,Active
same,growth inhibition (GI),SK-OV-3,Active
same,growth inhibition (GI),SF-268,Active
same,growth inhibition (GI),DU-145,Active
same,growth inhibition (GI),MOLT-4,Active
same,growth inhibition (GI),NCI-H226,Active
same,growth inhibition (GI),K562,Active
same,growth inhibition (GI),SK-MEL-28,Active
same,growth inhibition (GI),SNB-19,Active
same,growth inhibition (GI),U-251,Active
same,growth inhibition (GI),NCI-H23,Active
same,growth inhibition (GI),CAKI-1,Active
same,growth inhibition (GI),NCI/ADR-RES,Active
same,growth inhibition (GI),NCI-H460,Active
same,growth inhibition (GI),BT-549,Active
same,growth inhibition (GI),SN12C,Active
Clc1nc2ccccc2cc1Cn1nnnc1CSc1ccccc1,growth inhibition (GI),NCI-H522,Active
same,growth inhibition (GI),HCC 2998,Active
same,zone of inhibition at 100 µg/mL,Candida albicans [1],12 mm
same,growth inhibition (GI),IGROV-1,Active
same,growth inhibition (GI),T47D,Active
same,growth inhibition (GI),OVCAR-3,Active
same,growth inhibition (GI),OVCAR-8,Active
same,growth inhibition (GI),HCT-116,Active
same,growth inhibition (GI),MCF7,Active
same,growth inhibition (GI),Malme-3M,Active
same,MIC,Candida albicans [2],10 µg/mL
same,growth inhibition (GI),MDA-MB-468,Active
same,growth inhibition (GI),UACC-257,Active
same,growth inhibition (GI),UO-31,Active
same,growth inhibition (GI),SW-620,Active
same,growth inhibition (GI),SK-MEL-5,Active
same,growth inhibition (GI),RXF 393,Active
same,growth inhibition (GI),SR,Active
same,growth inhibition (GI),COLO 205,Active
same,MIC,Aspergillus fumigatus,25 µg/mL
same,growth inhibition (GI),A549,Active
same,growth inhibition (GI),UACC-62,Active
same,growth inhibition (GI),HT-29,Active
same,growth inhibition (GI),OVCAR-5,Active
same,growth inhibition (GI),SK-MEL-2,Active
same,growth inhibition (GI),HCT-15,Active
same,growth inhibition (GI),HL-60(TB),Active
same,growth inhibition (GI),MDA-MB-435,Active
same,growth inhibition (GI),M14,Active
same,growth inhibition (GI),SK-OV-3,Active
same,growth inhibition (GI),SF-268,Active
same,growth inhibition (GI),DU-145,Active
same,growth inhibition (GI),MOLT-4,Active
same,growth inhibition (GI),NCI-H226,Active
same,growth inhibition (GI),K562,Active
same,growth inhibition (GI),SK-MEL-28,Active
same,growth inhibition (GI),SNB-19,Active
same,growth inhibition (GI),U-251,Active
same,growth inhibition (GI),NCI-H23,Active
same,growth inhibition (GI),CAKI-1,Active
same,growth inhibition (GI),NCI/ADR-RES,Active
same,growth inhibition (GI),NCI-H460,Active
same,growth inhibition (GI),BT-549,Active
same,growth inhibition (GI),SN12C,Active
